Like-named read-outs stand apart in the source and are kept apart here.
What was measured:
[1] = tested on: micturition reflex (rhythmic bladder contractions); experiment: Inhibition of micturition reflex (rhythmic bladder contractions) in unanesthetized, gallamine-immobilized rats; type: in vivo, Male Wister rats; conditions: for Disappearance time (of bladder contractions): i.v., 4 rats, mean ± S.E., saline 9.0 ± 1.8; for Inhibition Rate: i.d., 15 min after administration, 0.5% CMC 11.9 ± 7.9
Method: (§1) statistical analysis: Each data of Experiment 1-6 represents the mean±S.E. statistical analysis of the data was performed using student's t-test.
Male Wister rats weighing about 300 g (in case of intraduodenal administration, fasted more than 15 hours) were anesthetized with ether and immobilized with gallamine (5 mg/kg, i.v.) and fixed on their back. As soon as that procedure was finished anesthesia was discontinuted.
In the experiment, infusion of gallamine, 13 mg/kg/hr, i.v. (in case of intraduodenum administration, 10 mg/kg/hr, i.v.) was continuted, and artificial respiration was performed (90 times/min, 3 ml air/time).
Then, through a midline incision of the abdomen, the urinary bladder was exposed; a small incision provided therein, and a balloon (capacity about 1 ml) was inserted into the bladder dome.
The balloon was connected to a pressure transducer and variations of inside pressure were recorded on a recorder.
Micturition reflex was elicited by raising the balloon pressure 10-20 cm H2 O.
In case of intravenous administration, the drug was administrated through a cannula inserted into the left jugular vein, and in case of intraduodenal administration the drug was administrated through a cannula inserted into the duodenum from outside the stomach.
In case of intravenous administration, the effect of the drug was represented by the disappearance time of bladder contractions caused by micturition reflex.
In case of intraduodenal administration, the sum total of amplitude of bladder contractions caused by micturition reflex was calculated during each five minutes at 5 min before and 15, 30, 45, 60, 75, 90, 105 and 120 min after the administration.
Then, inhibition rate was calculated by the sum total of amplitude of bladder contractions at each point compared with that before the administration.

[2] = tested on: cystometrogram (time to micturition); experiment: Effects on the cystometrogram (Dog); type: in vivo, Mongrel adult dogs; conditions: i.v., dogs, mean ± S.E., saline 6.0 ± 13.8
Method: as §1
Mongrel adult dogs weighing about 10 kg were anesthetized with thiopental (20 mg/kg, i.v.) and immobilized with gallamine (2 mg/kg, i.v.), and fixed on their back.
In the experiment, infusion of pentobarbital (3 mg/kg/hr, i.v.) and gallamine (3 mg/kg i.v.) were continuted, and artifical respiration was performed (20 times/min, 20 ml air/kg).
After midline incision of the abdomen, the ureters were ligated and polyethylene tubes were inserted into the kidney side and the urinary bladder side. Urine was led out of the body from the kidney side, and warm saline was infused using a continuous infusion pump from the urinary bladder side.
Then, a catheter was inserted into the bladder dome and connected to a pressure transducer. Intravesical pressure was recorded on a recorder.
The infusion rate of saline was changed (6-35 ml/min) so as to induce the time to micturition from the saline infusion (time to micturition) at about five minutes.
The drug was administered (through a cannula inserted into the right femoral vein) at the second minute before the last time to micturition, and the delayed time of micturition was evaluated.

[3] = tested on: cystometrogram (time to micturition); experiment: Effects on the cystometrogram (Cat); type: in vivo, Mongrel adult cats; conditions: cats; for ED (2 min delay of micturition): Felis catus, read-out: ED2 (dose which delayed time to micturition by 2 min.)
Method: as §1
Mongrel adult cats weighing about 3 kg (in case of intraduodenal administration, fasted 24 hours) were anesthetized with urethane (500 mg/kg, i.p.) and alpha-chloralose (50 mg/kg, i.p.) and fixed on their back.
After midline incision of the abdomen, the ureters were ligated and polyethylene tubes were inserted into the kidney side and urinary bladder side, urine was led out of the body from the kidney side, and warm saline was infused using a continuous infusion pump from the urinary bladder side.
Then, a catheter was inserted into the bladder dome and connected to a pressure transducer Intravesical pressure was recorded on a recorder.
The infusion rate of saline was changed (0.7-6.6 ml/min) so as to induce the time to micturition from saline infusion at about five minutes.
Each of delayed time of micturition was evaluated. In case of intravenous administration, the drug was administered through a cannula inserted into the right femoral vein at 30 seconds before saline infusion.
In case of intraduodenal administration, the drug was administrated through a tube inserted into the duodenum by way of mouth at the time of saline infusion, and the time to micturition was measured at 15 min. intervals until 90 min.

[4] = tested on: cystometrogram (time to micturition); experiment: Effects on the cystometrogram (in anesthetized rat); type: in vivo, Male Wister rats; conditions: i.v., 6 rats, mean ± S.E., saline -6.0 ± 49.8
Method: as §1
Male Wister rats weighing about 300 g were anesthetized with urethane (500 mg/kg, i.p.) and α-chloralose (50 mg/kg, i.p.) and fixed on their back.
Then, through a midline incision of the abdomen, the urinary bladder was exposed, provided with a small incision, a polyethylene tube was inserted into the bladder dome, and ureters were cut.
Then, through the polyethylene tube, saline was infused using a continuous infusion pump. On the other hand, the polyethylene tube was connected to a pressure transducer. Intravesical pressure was recorded on a recorder.
The drug was administrated through a cannula inserted into the left jugular vein at 30 sec before saline infusion. Effect of the drug was represented by delayed time to micturition.

[5] = tested on: cystometrogram (time to micturition); experiment: Effect on the cystometrogram (pollakiuria model rats induced by hypogastric nerve transection); type: in vivo, Male Wister rats; conditions: i.v., mean ± S.E., saline -6.0 ± 31.8
Method: as §1
Male Wister rats weighing 300 g were incised midline of the abdomen, and bilateral hypogastric nerves were transected.
Two days after hypogastric nerve transection, the rats were anesthetized with urethane (500 mg/kg, i.p.) and alpha-chloralose (50 mg/kg, i.p.) and fixed on their back.
Then, through a midline incision of the abdomen, the urinary bladder was exposed, provided with a small incision, a polyethylene tube inserted, and ureters were cut.
Through the polyethylene tube, saline was infused using a continuous infusion pump. On the other hand, the polyethylene tube was connected to a pressure transducer. Intravesical pressure was recorded on a recorder.
The drug was administrated through a cannula inserted into the left jugular vein at 30 sec before saline infusion.
Effect of drug was represented as delayed time to micturition.

## CCc1ccc(C(=O)C(C)CN2CCCC2)cc1 (stereo not drawn) [Compound 1]
[1]; 4 mg/kg
  Disappearance time (of bladder contractions): 52.8 ± 23.4 min
[1]; 8 mg/kg, * p < 0.05 vs control
  Disappearance time (of bladder contractions): 249.0 ± 45.0 min
[1]; 12.5 mg/kg, * p < 0.05
  Inhibition Rate: 36.1 ± 4.4%
[1]; 25 mg/kg, ** p < 0.01
  Inhibition Rate: 53.8 ± 6.9%
[1]; 50 mg/kg, ** p < 0.01
  Inhibition Rate: 87.9 ± 5.1%
[2]; 1 mg/kg
  Delayed time of micturition: 13.2 ± 21.0 s
[2]; 3 mg/kg, * p < 0.05 vs last time to micturition
  Delayed time of micturition: 50.4 ± 15.0 s
[3]; 1 mg/kg, i.v., mean ± S.E., saline 6.6 ± 10.2
  Delayed time to micturition: -19.2 ± 6.6 s
[3]; 4 mg/kg, i.v., mean ± S.E., saline 6.6 ± 10.2
  Delayed time to micturition: 70.8 ± 27.0 s
[3]; 8 mg/kg, i.v., mean ± S.E., saline 6.6 ± 10.2
  Delayed time to micturition: 170.4 ± 48.0 s
[3]; 12.5 mg/kg, i.d., after 30 min., water 22.2 ± 16.2
  Delayed time to micturition: 49.8 ± 8.4 s
[3]; 25.0 mg/kg, i.d., after 30 min., ** p < 0.01 vs control, water 22.2 ± 16.2
  Delayed time to micturition: 105.0 ± 10.8 s
[3]; 50.0 mg/kg, i.d., after 30 min., water 22.2 ± 16.2
  Delayed time to micturition: 128.4 ± 37.8 s
[3]; intraduodenal, 0.5 h, i.d., after 30 min.
  ED (2 min delay of micturition): 39 mg/kg
[3]; iv, 2 min, i.v.
  ED (2 min delay of micturition): 5.6 mg/kg
[4]; 1 mg/kg
  Delayed time of micturition: 52.8 ± 50.4 s
[4]; 4 mg/kg
  Delayed time of micturition: 102.0 ± 32.4 s
[4]; 8 mg/kg, ** P < 0.01 vs control
  Delayed time of micturition: 200.4 ± 60.6 s
[5]; 1 mg/kg, 5 rats
  Delayed time of micturition: 91.8 ± 47.4 s
[5]; 4 mg/kg, 5 rats
  Delayed time of micturition: 179.4 ± 111.0 s
[5]; 8 mg/kg, 6 rats, ** P < 0.01 vs control
  Delayed time of micturition: 449.4 ± 65.4 s
